Target: rat SAPK (isoform β) (Rattus norvegicus, UniProt P49187)
Assay: SAPK FlashPlate Assay (inhibition of cJun phosphorylation)
Assay type: biochemical
Details: for SAPK % Inhibition: at test concentration 0.5 μM, GST-cJun substrate, 33P-ATP
Description: "IC50 " refers to the concentration of a particular 4,5-pyrazinoxindole required to inhibit 50% of cJun phosphorylation, which is a measure of inhibition of SAPK activity. IC50 can be measured, inter alia, using the assay described herein in Example 7, infra.
Human JNK is highly homologous to rat SAPK. To measure the inhibitory activity of test compounds, the compounds were tested in the rat SAPK assay. For the SAPK assay, purified GST-cJun (a chimeric protein containing cJun, a natural substrate of JNK) was coated on 96 well FlashPlates (New England Nuclear, Boston, Mass.). Purified rat SAPK (isoform β, Kyriakis et al. supra) was preincubated with preparations containing MEKK-1 and MKK4 for 30 minutes at 37° C. in assay buffer containing 25 mM HEPES, pH 7.5, 150 mM NaCl, 20 mM MgCl2, 2 mM DTT, 0.001% Tween 20, 1 μM ATP freshly added. In the preincubation step, MEKK-1 phosphorylates and activates MKK-4, which in turn phosphorylates and activates SAPK. The activated SAPK was then added to the cJun coated FlashPlates along with ^33 P-ATP (0.32 μCi per reaction) and test compounds. The plates were incubated for 30 minutes at 37° C., then washed with PBS, 0.01% Tween 20, and counted in the Topcount scintillation counter (Packard Instrument Co., Downers Grove, Ill.). Dilutions of compounds were tested in duplicate in each assay. The percent inhibition of cJun phosphorylation (a measure of inhibition of SAPK activity) was determined by the following formula: [formula]
where "test compound" refers to the average counts per minute of the test duplicates, "nonspecific" refers to the average counts per minute when no SAPK was added, and "total" refers to the average counts per minute when no compound was added.

Chain of rat SAPK (isoform β) (P49187 whole entry, canonical isoform): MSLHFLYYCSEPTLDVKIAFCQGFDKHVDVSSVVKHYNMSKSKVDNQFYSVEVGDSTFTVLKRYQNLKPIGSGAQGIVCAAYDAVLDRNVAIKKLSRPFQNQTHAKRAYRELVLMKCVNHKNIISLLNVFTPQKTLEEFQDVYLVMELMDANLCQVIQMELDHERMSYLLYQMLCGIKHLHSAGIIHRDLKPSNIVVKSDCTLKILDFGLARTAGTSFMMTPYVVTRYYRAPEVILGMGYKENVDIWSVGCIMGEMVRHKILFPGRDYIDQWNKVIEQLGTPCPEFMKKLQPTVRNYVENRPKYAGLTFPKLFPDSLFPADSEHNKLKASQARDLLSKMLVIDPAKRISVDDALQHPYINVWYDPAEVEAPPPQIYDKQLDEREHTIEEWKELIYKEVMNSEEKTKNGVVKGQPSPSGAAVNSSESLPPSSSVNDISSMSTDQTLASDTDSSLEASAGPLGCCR

Row | Compound | inhibition at 0.1 µM (read-out: SAPK % Inhibition) [%] | SAPK % Inhibition [%] | further results
1 | COc1cc[nH]c1/C=C1\C(=O)Nc2ccc3nc(C)c(C)nc3c21 [A, (Z)-7,9-Dihydro-2,3-dimethyl-9-[(3-methoxy-1H-pyrrol-2-yl)methylene]-8H-pyrrolo-[3,2-f]quinoxalin-8-one] | ≥ 50 | – | –
2 | COc1cc[nH]c1/C=C1\C(=O)Nc2ccc3nc(-c4ccco4)c(-c4ccco4)nc3c21 [D, (Z)-7,9-Dihydro-2,3-di-(2-furanyl)-9-[(3-methoxy-1H-pyrrol-2-yl)methylene]-8H-pyrrolo[3,2-f]quinoxalin-8-one] | – | – | inhibition at 0.5 µM (read-out: SAPK % Inhibition): ≥ 50%
3 | COc1cc[nH]c1/C=C1\C(=O)Nc2ccc3nc4c(nc3c21)CCCC4 [E, (Z)-1,3,5,6,7,8-Hexahydro-3-[(3-methoxy-1H-pyrrol-2-yl)methylene]-2H-pyrrolo[3,2-a]phenazin-2-one] | ≥ 50 | – | –
4 | (Z)-7,9-Dihydro-9-[(3-methoxy-1H-pyrrol-2-yl)methylene]-2-methyl-3-phenyl-8H-pyrrolo[3,2-f]quinoxalin-8-one and (Z)-7,9-dihydro-9-[(3-methoxy-1H-pyrrol-2-yl)methylene]-3-methyl-2-phenyl- 8H-pyrrolo[3,2-f]quinoxalin-8-one [C] | – | ≥ 50 | –
5 | Mixture of (Z)-3-butyl-7,9-dihydro-9-[(3-methoxy-1H-pyrrol-2-yl)methylene]-2-methyl-8H-pyrrolo[3,2-f]quinoxalin-8-one and (Z)-2-butyl-7,9-dihydro-9-[(3-methoxy-1H-pyrrol-2-yl)methylene]-3-methyl-8H-pyrrolo[3,2-f]quinoxalin-8-one | – | ≥ 50 | –
